Experimental data taken from PubChem BioAssay AID330 (DTP/NCI, 2004).
Several values for one entry are separate records, joined by “and”; a condition that tells them apart may be missing. Identical values can stand only once. Toxic doses and inconclusive results are not listed. The calls were made as follows: active = survival T/C of 150% or more; inactive = T/C below 125% in these data.

Tested on: P388 leukemia ip, CD2F1 mice, survival T/C
Assay: NCI In Vivo Anticancer Drug Screen. Data for tumor model P388 Leukemia (intraperitoneal) in CD2F1 (CDF1) mice
Details: endpoint: median survival time, higher = longer survival
Outline: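 Mice carrying the transplanted tumor received test compound or vehicle. Survival was recorded in each group, and the value is the treated-group measurement divided by that of the vehicle-treated control group.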

[1] = dose: 100.0 mg/kg/injection, schedule: Q01DX009 (ip), vehicle: saline with Tween-80
[2] = dose: 200.0 mg/kg/injection, schedule: Q01DX009 (ip), vehicle: saline with Tween-80
[3] = dose: 400.0 mg/kg/injection, schedule: Q01DX009 (ip), vehicle: saline with Tween-80
[4] = dose: 6.25 mg/kg/injection, schedule: Q01DX009 (ip), vehicle: saline
[5] = dose: 12.5 mg/kg/injection, schedule: Q01DX009 (ip), vehicle: saline
[6] = dose: 50.0 mg/kg/injection, schedule: Q01DX009 (ip), vehicle: saline

Measured: T/C

O=C(/C=C(\NC1CCCCC1)C(=O)c1ccccc1)c1ccccc1
inactive: [1] 90 % of control | [2] 90 % of control | [3] 100 % of control

O=[N+]([O-])c1ccc(C(O)C(Br)[N+](=O)[O-])cc1 (centres undefined)
inactive: [1] 104 % of control | [2] 104 % of control | [3] 95 % of control

Cc1ccc(O)c(C(c2cc(C)ccc2O)c2ccccc2Cl)c1
inactive: dose: 50.0 mg/kg/injection, schedule: Q01DX009 (ip), vehicle: saline with Tween-80 108 % of control | [1] 108 % of control | [2] 103 % of control

Nc1cc(I)c2cccnc2c1O
inactive: [4] 119 % of control | [5] 115 % of control | dose: 16.0 mg/kg/injection, schedule: Q01DX009 (ip), vehicle: saline 98 % of control | dose: 25.0 mg/kg/injection, schedule: Q01DX009 (ip), vehicle: saline 92 % of control and 98 % of control | dose: 35.0 mg/kg/injection, schedule: Q01DX009 (ip), vehicle: saline 107 % of control | [6] 119 % of control

S=c1s/c(=C\c2ccccc2)c2nc3ccccc3n12
inactive: [6] 90 % of control | dose: 100.0 mg/kg/injection, schedule: Q01DX009 (ip), vehicle: saline 88 % of control

CCCCCCCCCCCCCCCC(=O)N(CCCN(CC)CC)C(C)CCCN(CC)CC (centres undefined)
inactive: dose: 0.38 mg/kg/injection, schedule: Q01DX009 (ip), vehicle: water 96 % of control | dose: 0.75 mg/kg/injection, schedule: Q01DX009 (ip), vehicle: water 98 % of control | dose: 1.5 mg/kg/injection, schedule: Q01DX009 (ip), vehicle: water 98 % of control | dose: 3.0 mg/kg/injection, schedule: Q01DX009 (ip), vehicle: water 95 % of control | dose: 6.0 mg/kg/injection, schedule: Q01DX009 (ip), vehicle: water 92 % of control

CCOC(=O)c1ccc(N2C(=O)C=CC2=O)cc1
inactive: dose: 3.12 mg/kg/injection, schedule: Q01DX009 (ip), vehicle: saline 98 % of control | [4] 98 % of control | [5] 96 % of control

C[n+]1c(-c2cccc3ccccc23)c2cc([N+](=O)[O-])ccc2c2ccccc21
inactive: dose: 4.0 mg/kg/injection, schedule: Q01DX009 (ip), vehicle: Klucel (hydroxypropylcellulose) (HPC) 114 % of control | dose: 8.0 mg/kg/injection, schedule: Q01DX009 (ip), vehicle: Klucel (hydroxypropylcellulose) (HPC) 115 % of control | dose: 8.0 mg/kg/injection, schedule: Q04DX003 (ip), vehicle: Klucel (hydroxypropylcellulose) (HPC) 98 % of control | dose: 16.0 mg/kg/injection, schedule: Q01DX009 (ip), vehicle: Klucel (hydroxypropylcellulose) (HPC) 119 % of control | dose: 16.0 mg/kg/injection, schedule: Q04DX003 (ip), vehicle: Klucel (hydroxypropylcellulose) (HPC) 108 % of control | dose: 32.0 mg/kg/injection, schedule: Q01DX009 (ip), vehicle: Klucel (hydroxypropylcellulose) (HPC) 114 % of control | dose: 32.0 mg/kg/injection, schedule: Q04DX003 (ip), vehicle: Klucel (hydroxypropylcellulose) (HPC) 114 % of control | dose: 64.0 mg/kg/injection, schedule: Q04DX003 (ip), vehicle: Klucel (hydroxypropylcellulose) (HPC) 106 % of control

CCC(=N\N=C(N)N)/C(C)=N\N=C(N)N
inactive: dose: 50.0 mg/kg/injection, schedule: Q01DX005 (ip), vehicle: saline with Tween-80 99 % of control | dose: 100.0 mg/kg/injection, schedule: Q01DX005 (ip), vehicle: saline with Tween-80 96 % of control

O=C(O)c1cc2oc(-c3ccccc3)cc2[nH]1
inactive: dose: 60.0 mg/kg/injection, schedule: Q01DX005 (ip), vehicle: saline with Tween-80 94 % of control | dose: 120.0 mg/kg/injection, schedule: Q01DX005 (ip), vehicle: saline with Tween-80 92 % of control

CCN=C(Nc1cccc(C2=NCCN2)c1)c1ccc(C(=NCC)Nc2cccc(C3=NCCN3)c2)cc1
inactive: dose: 1.56 mg/kg/injection, schedule: Q01DX005 (ip), vehicle: Klucel (hydroxypropylcellulose) (HPC) 100 % of control | dose: 3.12 mg/kg/injection, schedule: Q01DX005 (ip), vehicle: Klucel (hydroxypropylcellulose) (HPC) 99 % of control | dose: 6.25 mg/kg/injection, schedule: Q01DX005 (ip), vehicle: Klucel (hydroxypropylcellulose) (HPC) 109 % of control | dose: 12.5 mg/kg/injection, schedule: Q01DX005 (ip), vehicle: Klucel (hydroxypropylcellulose) (HPC) 109 % of control

CCOC(=O)C(C)(C)S(=O)Nc1ccccc1 (centres undefined)
inactive: dose: 60.0 mg/kg/injection, schedule: Q01DX005 (ip), vehicle: Klucel (hydroxypropylcellulose) (HPC) 99 % of control | dose: 120.0 mg/kg/injection, schedule: Q01DX005 (ip), vehicle: Klucel (hydroxypropylcellulose) (HPC) 99 % of control | dose: 240.0 mg/kg/injection, schedule: Q01DX005 (ip), vehicle: Klucel (hydroxypropylcellulose) (HPC) 102 % of control
